Data reported in patent publication US11013779B2, “Small molecule therapeutic inhibitors against picornaviruses, caliciviruses, and coronaviruses” (Kansas State University Research Foundation, priority 2016, dated 2021).

What was measured:
α-chymotrypsin = type: biochemical, human
trypsin = trypsin (Homo sapiens, UniProt P07477); type: biochemical
thrombin = thrombin (Homo sapiens, UniProt P00734); type: biochemical
Factor Xa = Factor Xa (Homo sapiens, UniProt P00742); type: biochemical
plasmin = plasmin (Homo sapiens, UniProt P00747); type: biochemical
Chain of plasmin (P00747 581-810 limits assumed): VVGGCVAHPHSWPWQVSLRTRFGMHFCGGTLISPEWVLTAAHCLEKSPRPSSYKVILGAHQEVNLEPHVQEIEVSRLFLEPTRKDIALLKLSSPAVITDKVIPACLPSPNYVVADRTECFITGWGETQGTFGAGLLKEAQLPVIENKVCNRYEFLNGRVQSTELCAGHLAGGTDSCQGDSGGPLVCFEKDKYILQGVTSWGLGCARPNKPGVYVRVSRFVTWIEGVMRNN
Chain of plasmin (P00747 97-580 partner limits assumed): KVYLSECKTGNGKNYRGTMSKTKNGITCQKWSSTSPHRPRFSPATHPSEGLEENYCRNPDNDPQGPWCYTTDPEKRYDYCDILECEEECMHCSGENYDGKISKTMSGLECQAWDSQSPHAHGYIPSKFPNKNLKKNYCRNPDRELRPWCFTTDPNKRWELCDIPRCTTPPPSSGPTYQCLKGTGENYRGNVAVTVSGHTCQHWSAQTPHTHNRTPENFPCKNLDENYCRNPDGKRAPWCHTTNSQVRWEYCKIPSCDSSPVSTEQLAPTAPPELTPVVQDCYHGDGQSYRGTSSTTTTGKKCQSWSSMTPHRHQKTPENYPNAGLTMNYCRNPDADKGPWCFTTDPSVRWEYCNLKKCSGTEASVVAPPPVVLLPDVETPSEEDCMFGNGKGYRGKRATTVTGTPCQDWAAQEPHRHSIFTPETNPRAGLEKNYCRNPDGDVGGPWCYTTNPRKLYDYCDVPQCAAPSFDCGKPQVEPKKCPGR

Chain of Factor Xa (P00742 235-488 limits assumed): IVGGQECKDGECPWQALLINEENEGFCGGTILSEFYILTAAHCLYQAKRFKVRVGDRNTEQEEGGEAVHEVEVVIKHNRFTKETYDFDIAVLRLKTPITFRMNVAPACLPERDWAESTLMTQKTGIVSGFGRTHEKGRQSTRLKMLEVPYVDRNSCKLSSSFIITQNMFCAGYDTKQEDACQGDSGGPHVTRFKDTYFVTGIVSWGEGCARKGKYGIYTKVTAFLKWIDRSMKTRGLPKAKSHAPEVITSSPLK
Chain of Factor Xa (P00742 41-179 partner limits assumed): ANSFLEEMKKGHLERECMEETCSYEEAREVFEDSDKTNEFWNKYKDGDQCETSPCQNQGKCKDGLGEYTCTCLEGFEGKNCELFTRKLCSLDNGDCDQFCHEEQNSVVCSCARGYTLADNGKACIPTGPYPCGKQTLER

CC(C)C[C@H](NC(=O)OC1CCN(C(=O)OC(C)(C)C)CC1)C(=O)N[C@@H](C[C@@H]1CCNC1=O)C(O)S(=O)(=O)[O-].[Na+] (some centres unmarked) [GC868]
No or minimal inhibition: inhibition of α-chymotrypsin (α-chymotrypsin) | inhibition of trypsin (trypsin) | inhibition of thrombin (thrombin) | inhibition of Factor Xa (Factor Xa) | inhibition of plasmin (plasmin)
